From the NIST ThermoML archive (doi:10.1016/j.fluid.2019.04.019)
Numbers after ± are expanded uncertainties.

Tests used:
[1] = Crystal
[2] = Molar enthalpy of transition or fusion; conditions: Crystal; DSC

Row | Normal melting temperature ([1]; DTA) [°C] | Molar enthalpy of transition or fusion [2] [kcal/mol] | SMILES | Normal melting temperature ([1]; visual observation) [°C]
1 | 132.2 ± 0.5 | 6.25 ± 0.182 | CCCC[n+]1ccccc1.[Cl-] [1-butylpyridinium chloride] | –
2 | – | – | C[N+](C)(CCO)CCO.[Cl-] [diethanoldimethylammonium chloride] | 290.6 ± 0.5
3 | – | – | CCC[N+]1(C)CCCCC1.[Cl-] [1-methyl-1-propyl-piperidinium chloride] | 225.2 ± 0.5
4 | 169 ± 0.5 | 1.61 ± 0.0693 | CC(O)C[N+](C)(C)C.[Cl-] (stereo not drawn) [beta.-methylcholine chloride] | –
5 | – | – | C[N+](C)(C)C.[Cl-] [tetramethylammonium chloride] | 341.6 ± 0.5
6 | – | – | C[N+](C)(C)CCO.[Br-] [choline bromide] | 308.5 ± 0.5
7 | – | – | CC[N+](CC)(CC)CC.[Cl-] [tetraethylammonium chloride] | 262.2 ± 0.5
8 | – | – | C[N+](C)(C)Cc1ccccc1.[Cl-] [trimethylbenzylammonium chloride] | 236.1 ± 0.5
